# From BindingDB's records for doi:10.1016/s0960-894x(98)00494-6 (University of Michigan, 1999)
# Test: Compound was evaluated for inhibition of Protease
row,Structure (SMILES),IC50 [µM]
1,C[C@H](NC(=O)[C@H](Cc1ccccc1)NC(=O)OCc1ccccc1)C(=O)[C@@H]1CO1 [[(S)-1-((S)-1-Methyl-2-(S)-oxiranyl-2-oxo-ethylcarbamoyl)-2-phenyl-ethyl]-carbamic acid benzyl ester],0.08
2,C[C@H](NC(=O)[C@H](Cc1ccccc1)NC(=O)OCc1ccccc1)C(=O)[C@H]1CO1 [[(S)-1-((S)-1-Methyl-2-(R)-oxiranyl-2-oxo-ethylcarbamoyl)-2-phenyl-ethyl]-carbamic acid benzyl ester],1
3,O=C(N[C@@H](Cc1ccccc1)C(=O)N[C@@H](CCc1ccccc1)C(=O)[C@@H]1CO1)OCc1ccccc1 [{(S)-1-[(S)-1-((S)-Oxiranecarbonyl)-3-phenyl-propylcarbamoyl]-2-phenyl-ethyl}-carbamic acid benzyl ester],0.01
4,O=C(N[C@@H](Cc1ccccc1)C(=O)N[C@@H](CCc1ccccc1)C(=O)[C@H]1CO1)OCc1ccccc1 [{(S)-1-[(S)-1-((R)-Oxiranecarbonyl)-3-phenyl-propylcarbamoyl]-2-phenyl-ethyl}-carbamic acid benzyl ester],> 1
